Experiments:
[1] = molecular target: T1, human recombinant adrenergic α2B receptor (Homo sapiens, UniProt P18089); test: Adrenergic α2B radioligand binding ([3H]Rauwolscine)
T1 construct: expressed in transfected cells; host or cells: Chinese hamster ovary (CHO-K1) cells
T1 sequence (P18089 1-450): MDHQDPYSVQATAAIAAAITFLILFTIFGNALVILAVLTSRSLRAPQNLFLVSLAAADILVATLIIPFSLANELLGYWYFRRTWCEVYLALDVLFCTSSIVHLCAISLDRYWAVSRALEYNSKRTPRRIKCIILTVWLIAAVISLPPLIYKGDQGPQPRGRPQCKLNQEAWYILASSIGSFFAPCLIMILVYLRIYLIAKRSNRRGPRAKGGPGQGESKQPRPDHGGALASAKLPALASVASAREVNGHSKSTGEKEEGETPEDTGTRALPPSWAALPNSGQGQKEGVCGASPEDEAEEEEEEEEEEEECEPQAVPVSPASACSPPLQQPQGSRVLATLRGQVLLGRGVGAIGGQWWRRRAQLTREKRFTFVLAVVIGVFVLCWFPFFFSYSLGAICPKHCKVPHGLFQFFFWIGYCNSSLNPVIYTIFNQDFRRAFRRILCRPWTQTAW
Description: To evaluate in radioligand binding assays the activity of compounds of the invention, human recombinant adrenergic α2B receptor expressed in Chinese hamster ovary (CHO-K1) cells [Uhlen, S. et al., Eur. J. Pharmacol. (1998), 343(1):93] in a modified Tris-HCl buffer (50 mM Tris-HCl, pH 7.4, 12.5 mM MgCl2, 1 mM EDTA, 0.2% BSA) was used. Compounds of the invention were incubated with 2.5 nM [^3H]Rauwolscine for 60 min at 25° C. Non-specific binding was estimated in the presence of 10 μM Prozosin. Receptor proteins were filtered and washed, the filters were then counted to determine [^3H]Rauwolscine specifically bound. Compounds were screened at 1 μM or lower, using 1% DMSO as vehicle. Compounds of the invention were tested in this biochemical assay. Biochemical assay results for representative compounds were presented as the percent inhibition of specific binding in Table 3.

[2] = molecular target: T2, human recombinant adrenergic α2A receptor (Homo sapiens, UniProt P08913); test: Adrenergic α2A radioligand binding ([3H]MK-912)
T2 construct: expressed in transfected cells; host or cells: insect Sf9 cells
T2 sequence (P08913 1-465): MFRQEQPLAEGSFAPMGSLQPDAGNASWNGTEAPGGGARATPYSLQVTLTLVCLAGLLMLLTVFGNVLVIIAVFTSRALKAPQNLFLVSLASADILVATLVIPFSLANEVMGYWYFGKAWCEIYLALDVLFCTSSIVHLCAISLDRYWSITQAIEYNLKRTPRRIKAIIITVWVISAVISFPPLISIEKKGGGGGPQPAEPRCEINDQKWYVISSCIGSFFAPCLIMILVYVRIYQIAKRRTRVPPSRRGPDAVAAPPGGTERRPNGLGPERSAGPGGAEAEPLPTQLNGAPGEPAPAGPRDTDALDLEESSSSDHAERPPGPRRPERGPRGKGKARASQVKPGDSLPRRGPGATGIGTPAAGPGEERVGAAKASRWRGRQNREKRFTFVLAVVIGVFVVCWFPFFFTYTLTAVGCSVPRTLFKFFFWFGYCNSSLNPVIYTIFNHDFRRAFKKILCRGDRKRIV
Description: To evaluate in radioligand binding assays the activity of compounds of the invention, human recombinant adrenergic α2A receptor expressed in insect Sf9 cells [Uhlen, S. et al., J. Pharmacol. Exp. Ther. (1994), 271:1558] in a modified Tris-HCl buffer (50 mM Tris-HCl, pH 7.4, 12.5 mM MgCl2, 2 mM EDTA) was used. Compounds of invention were incubated with 1 nM [^3H]MK-912 for 60 min at 25° C. MK912 was (2S-trans)-1,3,4,5′,6,6′,7,12b-octahydro-1′,3′-dimethyl-spiro[2H-benzofuro[2,3-a]quinolizine-2,4′(1′H)-pyrimidin]-2′(3′H)-one hydrochloride Non-specific binding was estimated in the presence of 10 μM WB-4101 (2-(2,6-dimethoxyphenoxyethyl)aminomethyl-1,4-benzodioxane hydrochloride). Receptor proteins were filtered and washed, the filters were then counted to determine [^3H]MK-912 specifically bound. Compounds were screened at 1 μM or lower, using 1% DMSO as vehicle. Compounds of the invention were tested in this biochemical assay. Biochemical assay results for representative compounds were presented as the percent inhibition of specific binding in Table 3.

[3] = molecular target: T3, human recombinant histamine H2 receptor (Homo sapiens, UniProt P25021); test: Histamine H2 radioligand binding (Aminopotentidine); conditions: read-out: Binding data (Percentage Inhibition) Histamine Binding H2
T3 construct: expressed in transfected cells; host or cells: Chinese hamster ovary (CHO) K1 cells
Description: To evaluate in radioligand binding assays the activity of compounds of the invention, human recombinant histamine H2 receptor expressed in Chinese hamster ovary (CHO) K1 cells [Ruat, M., Proc. Natl. Acad. Sci. USA. (1990), 87(5):1658] in a 50 mM Phosphate buffer, pH 7.4 was used. Compounds of the invention were incubated with 0.1 nM […] for 120 min at 25° C. Non-specific binding was estimated in the presence of 3 μM Tiotidine. Receptor proteins were filtered and washed, the filters were then counted to determine […] specifically bound. Compounds were screened at 1 μM or lower, using 1% DMSO as vehicle. Biochemical assay results are presented as the percent inhibition of specific binding in Table 2.

T3 sequence (P25021 whole entry): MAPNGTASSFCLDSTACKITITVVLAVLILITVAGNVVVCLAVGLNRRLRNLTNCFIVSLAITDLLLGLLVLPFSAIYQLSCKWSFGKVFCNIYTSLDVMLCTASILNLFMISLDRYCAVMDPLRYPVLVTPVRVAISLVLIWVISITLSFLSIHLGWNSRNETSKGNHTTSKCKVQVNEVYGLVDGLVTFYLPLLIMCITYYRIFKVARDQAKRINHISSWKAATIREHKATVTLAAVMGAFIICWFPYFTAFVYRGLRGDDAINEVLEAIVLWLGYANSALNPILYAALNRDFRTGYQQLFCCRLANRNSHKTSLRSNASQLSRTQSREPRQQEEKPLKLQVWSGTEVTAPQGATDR

Structure (SMILES) | Percent Inhibition of ligand binding Adrenergic α2B ([1]; 0.1 μM ligand conc.) | Percent Inhibition of ligand binding Adrenergic α2A ([2]; 0.1 μM ligand conc.) | inhibition at 1 µM [3] | Percent Inhibition of ligand binding Adrenergic α2B ([1]; 1 μM ligand conc.) | Percent Inhibition of ligand binding Adrenergic α2A ([2]; 1 μM ligand conc.)
O=C(Cn1c2c(c3cccnc31)CN1CCCC1C2)N1CCCCC1 (stereo not shown) [Compound 37, 1-(piperidin-1-yl)-2-(8,9,9a,10-tetrahydro-5H-pyrido[3′,2′:4,5]pyrrolo[3,2-f]indolizin-11(7H)-yl)ethanone] | 40% | 12% |  |  | 
Fc1ccc(CCn2c3c(c4cc(Cl)ccc42)C2CCCN2CC3)cc1 (stereo not shown) [Compound 1, 7-(4-fluorophenethyl)-10-chloro-2,3,5,6,7,11c-hexahydro-1H-indolizino[7,8-b]indole] |  |  | 15% | 55% | 22%
Fc1ccc(CCn2c3c(c4cc(Cl)ccc42)CN2CCCC2C3)cc1 (stereo not shown) [Compound 2, 10-(4-fluorophenethyl)-7-chloro-2,3,5,10,11,11a-hexahydro-1H-indolizino[7,6-b]indole] |  |  | 17% | 51% | 20%
O=C(Cn1c2c(c3cccnc31)C1CCCN1CC2)N1CCCCC1 (stereo not shown) [Compound 38, 1-(piperidin-1-yl)-2-(2,3,5,6-tetrahydro-1H-pyrido[3′,2′:4,5]pyrrolo[2,3-g]indolizin-7(11cH)-yl)ethanone] | 30% | 4% |  |  | 
